Read-outs that look alike come from different tables or passages of the source. Marks after values point to notes of the source that are not given here.
Columns and labels:
mice = assay: Biological Example 5: acute toxicity experiment of single oral administration in mice; format: in vivo; conditions: single oral 1000 mg/Kg, Mean ± SD
Description: The mice were fasted one day before the experiment. On the day of the experiment, 6 mice (ICR mice, body weight of 19-21 g, three females and three males) were selected in each experiment group. First of all, one female and one male were selected to orally give 1000 mg/Kg, and observed for 5-10 minutes. If there were no obvious side effects, the remaining 4 animals were orally given the same dose, and observed for 10-15 minutes. If no animal died, the animals were placed in a box to balancedly feed for 7 days. The state was observed and the body weight was recorded daily.
Observation Indexes within 0-15 Minutes after Administration
Activity: restlessness, hyperactivity
Nervous system response: tremor, spasm, convulsion, ataxia, posture abnormality, etc.
Autonomic nerve: exophthalmos, salivation, tears, urination (hematuria), diarrhea, piloerection, breathing, etc.
State of Animal: lethargy, hyperactivity, excitement, hair loss, diarrhea, abnormal behavior, death, etc.

[1] = test system: DNBS-Induced Inflammatory Bowel Disease Models in Rats; assay: Biological Example 4: DNBS-induced inflammatory bowel disease models in rats; format: in vivo, Wistar rats; conditions: 30 mg/Kg i.g. qd × 7; for Adhesion Degree of Colon / Colon weight to length ratio / Ulcer area of colon / inhibition in vivo at 30 mg/kg: day 7; for Body weight: Mean ± SD; for inhibition in vivo at 30 mg/kg: Rattus norvegicus, po, 168 h
Description: 102 male Wistar rats were fasted for 72 hours. A 5% glucose injection was administered subcutaneously twice during fasting. 88 rats with normal conditions and moderate body weight were selected from the fasting rats. The animals were randomly divided into 11 groups according to the body weight (see Table 11. Grouped Table).
The animals were anesthetized with ether after 72 hours fasting. A specially made gavage device was slowly inserted into the enteric cavity at 8 cm from the anus. The model control group and each test group were administered with 0.5 mL of 50 mg/mL DNBS in 30% ethanol solution. The normal control group was administered with 0.5 mL of 30% ethanol solution. The animals were inverted in anesthesia for 15 minutes. The day when the model was prepared was day 0 of the experiment. After 4 hours of DNBS induction, the corresponding drug or the corresponding volume of 1% CMC-Na was administered once per day. On day 7 of the experiment, the animals were euthanized to score the colon adhesion degree, measure the length of colon and ulcer area, weigh colon and calculate the colon weight to length ratio.
One-way ANOVA analysis of the length of colon and colon weight per length of rats was performed by SPSS22. Statistical analyses between groups were performed. The adhesion degree was scored. Mann-Whitney U non-parametric test was performed on ulcer area. Statistical analyses between groups were performed.
Calculation Formula of Inhibitory rate of weight increase per length: (Colon weight to length ratio in model group−Colon weight to length ratio in administration group)/(Colon weight to length ratio in model group−Colon weight to length ratio in blank group)

[2] = read-out: Inhibitory rate of colon adhesion
[3] = read-out: Inhibitory rate of ulcer area of colon
[4] = read-out: Inhibitory rate of weight increase per length

## CNc1cccc2c1C(=O)N(C1CCC(=O)N(CCOC)C1=O)C2=O (stereo not drawn) [Example 2, 4-methylamino-2-(1-(2-methoxyethyl)-2,6-dioxopiperidin-3-yl)isoindolin-1,3-dione]
mice; Female mice, Day 1
  Daily Body Weight: 19.2 ± 0.5 g
mice; Female mice, Day 2
  Daily Body Weight: 22.7 ± 0.6 g
mice; Female mice, Day 3
  Daily Body Weight: 23.2 ± 0.5 g
mice; Female mice, Day 4
  Daily Body Weight: 23.2 ± 0.5 g
mice; Female mice, Day 5
  Daily Body Weight: 24.4 ± 0.2 g
mice; Female mice, Day 6
  Daily Body Weight: 24.6 ± 1.1 g
mice; Female mice, Day 7
  Daily Body Weight: 24.5 ± 1.9 g
mice; Male mice, Day 1
  Daily Body Weight: 18.6 ± 0.5 g
mice; Male mice, Day 2
  Daily Body Weight: 24.1 ± 0.4 g
mice; Male mice, Day 3
  Daily Body Weight: 24.7 ± 0.2 g
mice; Male mice, Day 4
  Daily Body Weight: 24.7 ± 0.2 g
mice; Male mice, Day 5
  Daily Body Weight: 26.2 ± 0.6 g
mice; Male mice, Day 6
  Daily Body Weight: 28.8 ± 0.5 g
mice; Male mice, Day 7
  Daily Body Weight: 29.2 ± 0.8 g
[1]
  Adhesion Degree of Colon: 0.8 ± 0.9 point
  Colon weight to length ratio: 120 ± 25 mg/cm
  Ulcer area of colon: 1.0 ± 1.6 cm^2
[1]; Day 1
  Body weight: 122.1 ± 4.6 g
[1]; Day 2
  Body weight: 123.0 ± 8.4 g
[1]; Day 3
  Body weight: 127.1 ± 11.3 g
[1]; Day 4
  Body weight: 132.0 ± 12.4 g
[1]; Day 5
  Body weight: 143.9 ± 11.9 g
[1]; Day 6
  Body weight: 141.5 ± 11.5 g
[1]; Day 7
  Body weight: 162.8 ± 15.8 g
[1]; [2]
  inhibition in vivo at 30 mg/kg: 66.9%
[1]; [3]
  inhibition in vivo at 30 mg/kg: 83.3%
[1]; [4]
  inhibition in vivo at 30 mg/kg: 57.6%

## COCCN1C(=O)CCC(N2C(=O)c3ccc(O)c(N)c3C2=O)C1=O (stereo not drawn) [Example 8, 4-amino-5-hydroxy-2-(1-(2-methoxyethyl)-2,6-dioxopiperidin-3-yl)isoindolin-1,3-dione]
mice; Female mice, Day 1
  Daily Body Weight: 18.9 ± 0.9 g
mice; Female mice, Day 2
  Daily Body Weight: 22.9 ± 0.9 g
mice; Female mice, Day 3
  Daily Body Weight: 24.3 ± 0.7 g
mice; Female mice, Day 4
  Daily Body Weight: 24.3 ± 1.1 g
mice; Female mice, Day 5
  Daily Body Weight: 25.3 ± 1.4 g
mice; Female mice, Day 6
  Daily Body Weight: 25.8 ± 1.5 g
mice; Female mice, Day 7
  Daily Body Weight: 26.0 ± 2.5 g
mice; Male mice, Day 1
  Daily Body Weight: 18.0 ± 1.3 g
mice; Male mice, Day 2
  Daily Body Weight: 23.1 ± 0.9 g
mice; Male mice, Day 3
  Daily Body Weight: 24.6 ± 1.0 g
mice; Male mice, Day 4
  Daily Body Weight: 25.6 ± 1.7 g
mice; Male mice, Day 5
  Daily Body Weight: 27.2 ± 2.2 g
mice; Male mice, Day 6
  Daily Body Weight: 28.2 ± 2.2 g
mice; Male mice, Day 7
  Daily Body Weight: 29.2 ± 2.6 g
[1]
  Adhesion Degree of Colon: 0.9 ± 0.6 point
  Colon weight to length ratio: 106 ± 13 mg/cm
  Ulcer area of colon: 0.2 ± 0.4 cm^2
[1]; Day 1
  Body weight: 128.6 ± 5.3 g
[1]; Day 2
  Body weight: 128.2 ± 9.2 g
[1]; Day 3
  Body weight: 131.6 ± 13.5 g
[1]; Day 4
  Body weight: 136.8 ± 17.4 g
[1]; Day 5
  Body weight: 149.1 ± 16.7 g
[1]; Day 6
  Body weight: 149.7 ± 16.8 g
[1]; Day 7
  Body weight: 164.1 ± 17.9 g
[1]; [2]
  inhibition in vivo at 30 mg/kg: 52.7%
[1]; [3]
  inhibition in vivo at 30 mg/kg: 91.7%
[1]; [4]
  inhibition in vivo at 30 mg/kg: 65.9%

## COCCN1C(=O)CCC(N2C(=O)c3c(N)ccc(O)c3C2=O)C1=O (stereo not drawn) [Example 10, 4-amino-7-hydroxy-2-(1-(2-methoxyethyl)-2,6-dioxopiperidin-3-yl)isoindolin-1,3-dione]
mice; Female mice, Day 1
  Daily Body Weight: 19.2 ± 0.5 g
mice; Female mice, Day 2
  Daily Body Weight: 21.9 ± 0.4 g
mice; Female mice, Day 3
  Daily Body Weight: 22.4 ± 0.2 g
mice; Female mice, Day 4
  Daily Body Weight: 22.4 ± 0.2 g
mice; Female mice, Day 5
  Daily Body Weight: 22.9 ± 0.6 g
mice; Female mice, Day 6
  Daily Body Weight: 24.1 ± 1.5 g
mice; Female mice, Day 7
  Daily Body Weight: 24.2 ± 1.8 g
mice; Male mice, Day 1
  Daily Body Weight: 19.4 ± 0.3 g
mice; Male mice, Day 2
  Daily Body Weight: 24.4 ± 0.6 g
mice; Male mice, Day 3
  Daily Body Weight: 25.5 ± 0.9 g
mice; Male mice, Day 4
  Daily Body Weight: 25.5 ± 0.9 g
mice; Male mice, Day 5
  Daily Body Weight: 26.8 ± 0.9 g
mice; Male mice, Day 6
  Daily Body Weight: 29.2 ± 0.7 g
mice; Male mice, Day 7
  Daily Body Weight: 30.3 ± 0.7 g
[1]
  Adhesion Degree of Colon: 0.5 ± 0.5 point
  Colon weight to length ratio: 93 ± 12 mg/cm
  Ulcer area of colon: 0.2 ± 0.5# cm^2
[1]; Day 1
  Body weight: 122.4 ± 6.7 g
[1]; Day 2
  Body weight: 122.1 ± 8.0 g
[1]; Day 3
  Body weight: 126.6 ± 9.8 g
[1]; Day 4
  Body weight: 136.9 ± 12.5 g
[1]; Day 5
  Body weight: 143.7 ± 18.2 g
[1]; Day 6
  Body weight: 144.9 ± 19.7 g
[1]; Day 7
  Body weight: 160.8 ± 25.7 g
[1]; [2]
  inhibition in vivo at 30 mg/kg: 81.1%
[1]; [3]
  inhibition in vivo at 30 mg/kg: 91.7%
[1]; [4]
  inhibition in vivo at 30 mg/kg: 81.2%

## C[S+]([O-])CCN1C(=O)CCC(N2C(=O)c3cccc(N)c3C2=O)C1=O (stereo not drawn) [Example 12, 4-amino-2-(1-(2-methylsulfinylethyl)-2,6-dioxopiperidin-3-yl)isoindolin-1,3-dione]
mice; Female mice, Day 1
  Daily Body Weight: 18.7 ± 0.7 g
mice; Female mice, Day 2
  Daily Body Weight: 21.8 ± 0.6 g
mice; Female mice, Day 3
  Daily Body Weight: 22.6 ± 0.1 g
mice; Female mice, Day 4
  Daily Body Weight: 22.6 ± 0.0 g
mice; Female mice, Day 5
  Daily Body Weight: 23.7 ± 0.6 g
mice; Female mice, Day 6
  Daily Body Weight: 25.3 ± 1.0 g
mice; Female mice, Day 7
  Daily Body Weight: 25.7 ± 1.6 g
mice; Male mice, Day 1
  Daily Body Weight: 18.5 ± 0.2 g
mice; Male mice, Day 2
  Daily Body Weight: 24.3 ± 0.6 g
mice; Male mice, Day 3
  Daily Body Weight: 24.9 ± 0.1 g
mice; Male mice, Day 4
  Daily Body Weight: 24.9 ± 0.1 g
mice; Male mice, Day 5
  Daily Body Weight: 26.1 ± 0.7 g
mice; Male mice, Day 6
  Daily Body Weight: 27.8 ± 0.7 g
mice; Male mice, Day 7
  Daily Body Weight: 28.5 ± 0.7 g
[1]
  Adhesion Degree of Colon: 0.8 ± 0.7 point
  Colon weight to length ratio: 92 ± 16 mg/cm
  Ulcer area of colon: 0.4 ± 0.9 cm^2
[1]; Day 1
  Body weight: 129.1 ± 5.1 g
[1]; Day 2
  Body weight: 128.7 ± 6.6 g
[1]; Day 3
  Body weight: 133.9 ± 9.8 g
[1]; Day 4
  Body weight: 141.8 ± 12.0 g
[1]; Day 5
  Body weight: 149.2 ± 11.0 g
[1]; Day 6
  Body weight: 149.5 ± 11.2 g
[1]; Day 7
  Body weight: 167.3 ± 11.3 g
[1]; [2]
  inhibition in vivo at 30 mg/kg: 62.2%
[1]; [3]
  inhibition in vivo at 30 mg/kg: 83.3%
[1]; [4]
  inhibition in vivo at 30 mg/kg: 82.4%

From US20220372013A2, “PIPERIDINE-2,6-DIONE DERIVATIVES AND CROHN'S DISEASE TREATING” (Tianjin Hemay Pharmaceutical Sci-Tech Co., Ltd, priority 2016, published 2022)
